As a reminder, the EC50 is the concentration at which the effect is half-maximal. A word on the EC90: it is the point of the concentration-response curve where the effect stands at 90%.

Where two headings read alike, the source gives them in different places. Bounds are passed on as bounds.

The record followed here is patent publication US11865111B2, “Antiviral drugs targeting the N-terminal domain (NTD) of the coronavirus spike receptor binding domain (RBD)” (priority 2021, dated 2024).

One series in a line: in vitro. The following applies: African green monkey.
Series [1] has as its system SARS-CoV-2 (USA-WA1/2020). Briefly: microbe, parasite or virus in culture. The following applies: for SI (selectivity index=CC50/EC50): CC50/EC50, against the SARS-CoV-2 strain. Format: cell-based.
The mark [2] stands for this setting: Severe acute respiratory syndrome coronavirus 2, Vero C1008, 32 h, read-out: EC50.
Where [3] appears, read: Severe acute respiratory syndrome coronavirus 2, Vero C1008, 32 h, read-out: EC90.
Setting [4] is: Severe acute respiratory syndrome coronavirus 2, Vero C1008, against the SARS-CoV-2 strain, read-out: EC90 value.

In turn, `COC(=O)c1cccc(CNCc2cccc(-c3csc(-c4nc5ccccc5[nH]4)c3)c2)c1` [Compound 1, methyl 3-(((3-(5-(1H-benzo[d]imidazol-2-yl)thiophen-3-yl)benzyl)amino)methyl)benzoate] yielded a CC50 in “in vitro” of more than 30 µM. Besides, in series [1], the “SI (selectivity index=CC50/EC50)” value is given as more than 5.30. Further, the 50% effective concentration (EC50) in series [1] (setting [2]) amounted to 5.66 µM. In addition, the 90% effect concentration (EC90) in series [1] (setting [3]) was 9.5 µM.

For the compound `CNC(=O)c1cccc(CNCc2cccc(-c3csc(-c4nc5ccccc5[nH]4)c3)c2)c1` [Compound 2, 3-(((3-(5-(1H-benzo[d]imidazol-2-yl)thiophen-3-yl)benzyl)amino)methyl)-N-methylbenzamide], in the series “in vitro”, the CC50 was more than 30 µM. Also, in series [1], the “SI (selectivity index=CC50/EC50)” value is reported as more than 4.04. The EC50 in series [1] (setting [2]) was 7.43 µM. In series [1] (setting [3]), the EC90 came out at 13.1 µM.

The compound `COC(=O)c1cccc(CNC(=O)c2cccc(-c3csc(-c4nc5ccccc5[nH]4)c3)c2)c1` [Compound 3, methyl 3-((3-(5-(1H-benzo[d]imidazol-2-yl)thiophen-3-yl)benzamido)methyl)benzoate] gave a CC50 in “in vitro” of more than 30 µM. In addition, the “SI (selectivity index=CC50/EC50)” value in series [1] is recorded as more than 4.00. Also, the half-maximal effective concentration (EC50) in series [1] (setting [2]) was 7.5 µM. In series [1] (setting [3]), the EC90 was determined as 12.6 µM.

In the case of `CCOc1cc(CN2CCC(C(=O)Nc3cccc(-c4cccc(F)c4)c3)CC2)ccc1O` [Compound 4, 1-(3-ethoxy-4-hydroxybenzyl)-N-(3′-fluoro-[1,1′-biphenyl]-3-yl)piperidine-4-carboxamide], the CC50 in the series “in vitro” was more than 30 µM. Further, the “SI (selectivity index=CC50/EC50)” value in series [1] is given as more than 4.92. For the same compound, the EC50 in series [1] (setting [2]) is 6.1 µM. The EC90 in series [1] (setting [3]) was 10.1 µM.

In the series “in vitro”, `CCOc1cc(CN2CCC(C(=O)Nc3cccc(-c4cccc(C(F)(F)F)c4)c3)CC2)ccc1O` [Compound 5, 1-(3-ethoxy-4-hydroxybenzyl)-N-(3′-(trifluoromethyl)-[1,1′-biphenyl]-3-yl)piperidine-4-carboxamide] returned a CC50 of 15.6 µM. In addition, in series [1], the “SI (selectivity index=CC50/EC50)” value amounted to 3.20. In addition, in series [1] (setting [2]), the EC50 was 4.91 µM. Moreover, the EC90 in series [1] (setting [3]) came to 7.47 µM.

In the series “in vitro”, `CCOc1cc(CN2CCC(C(=O)Nc3cccc(-c4cccc(OC)c4)c3)CC2)ccc1O` [Compound 6, 1-(3-ethoxy-4-hydroxybenzyl)-N-(3′-methoxy-[1,1′-biphenyl]-3-yl)piperidine-4-carboxamide] returned a CC50 of 26.3 µM. The “SI (selectivity index=CC50/EC50)” value in series [1] was found to be 3.70. For the same compound, in series [1] (setting [2]), the EC50 worked out at 7.16 µM. In addition, in series [1] (setting [3]), the EC90 is 11.5 µM.

Compound `O=C(Nc1cccc(-c2cccc(Cl)c2)c1)C1CCN(Cc2ccc(O)cc2)CC1` [Compound 7, N-(3′-chloro-[1,1′-biphenyl]-3-yl)-1-(4-hydroxybenzyl)piperidine-4-carboxamide] had a CC50 in “in vitro” of 21 µM. The “SI (selectivity index=CC50/EC50)” value in series [1] is 3.36. In series [1] (setting [2]), the EC50 is 6.4 µM. Further, the EC90 in series [1] (setting [3]) amounted to 11 µM.

Turning to `COc1ccc(CN2CCC(C(=O)Nc3cccc(-c4cccc(Cl)c4)c3)CC2)cc1O` [Compound 8, N-(3′-chloro-[1,1′-biphenyl]-3-yl)-1-(3-hydroxy-4-methoxybenzyl)piperidine-4-carboxamide], the CC50 in “in vitro” worked out at 17 µM. Also, in series [1], the “SI (selectivity index=CC50/EC50)” value was found to be 2.48. Besides, the EC50 in series [1] (setting [2]) worked out at 6.9 µM. Also, the EC90 in series [1] (setting [3]) was 11.7 µM.

Regarding `CCOc1cc(CN2CCC(C(=O)Nc3cccc(-c4cccc(Cl)c4)c3)CC2)ccc1O` [Compound 9, N-(3′-chloro-[1,1′-biphenyl]-3-yl)-1-(3-ethoxy-4-hydroxybenzyl)piperidine-4-carboxamide], in the series “in vitro”, the CC50 came to 16 µM. Further, the “SI (selectivity index=CC50/EC50)” value in series [1] is reported as 2.80. Besides, in series [1] (setting [2]), the EC50 amounted to 5.8 µM. Also, the EC90 in series [1] (setting [3]) is 8.9 µM.

Compound `CCOc1cc(CN2CCC(C(=O)Nc3cccc(-c4ccc(Cl)cc4)c3)CC2)ccc1O` [Compound 10, N-(4′-chloro-[1,1′-biphenyl]-3-yl)-1-(3-ethoxy-4-hydroxybenzyl)piperidine-4-carboxamide] had a CC50 in “in vitro” of 16 µM. For the same compound, the “SI (selectivity index=CC50/EC50)” value in series [1] was 2.65. Further, the EC50 in series [1] (setting [2]) was determined as 6.2 µM. Also, the EC90 in series [1] (setting [3]) came to 9.1 µM.

Consider `COc1cc(C(=O)OCCCN2CCCN(CCCOC(=O)c3cc(OC)c(OC)c(OC)c3)CC2)cc(OC)c1OC` [Dilazep, 3-[4-[3-(3,4,5-trimethoxybenzoyl)oxypropyl]-1,4-diazepan-1-yl]propyl 3,4,5-trimethoxybenzoate, reference compound], for which the CC50 in the series “in vitro” was more than 30 µM. Besides, the EC50 in series [1] (Severe acute respiratory syndrome coronavirus 2, Vero C1008, against the SARS-CoV-2 strain, read-out: EC50 value) turned out to be 3.89 µM. For the same compound, in series [1] (setting [4]), the EC90 was determined as 19.8 µM.

For the compound `O=C(NC1CCN(CCCCC2(C(=O)NCC(F)(F)F)c3ccccc3-c3ccccc32)CC1)c1ccccc1-c1ccc(C(F)(F)F)cc1` [N-(2,2,2-trifluoroethyl)-9-(4-(4-(4′-(trifluoromethyl)-[1,1′-biphenyl]-2-carboxamido)piperidin-1-yl)butyl)-9H-fluorene-9-carboxamide, reference compound], in “in vitro”, the CC50 came out at 9.56 µM. Also, in series [1], the “SI (selectivity index=CC50/EC50)” value was 5.92. For the same compound, in series [1] (Severe acute respiratory syndrome coronavirus 2, Vero C1008, against the SARS-CoV-2 strain, unit inferred, read-out: EC50 value), the EC50 amounted to 1.61 µM. The EC90 in series [1] (setting [4]) was 2.83 µM.
